Active and inactive are the calls of the source. The rule behind the calls is not given here.
Target: Cystic fibrosis transmembrane conductance regulator (Homo sapiens) (UniProt P13569)
Test: Corrector activity at human CFTR deltaF508 mutant expressed in FRT cells assessed as iodide influx at 25 uM
Type: cell-based

Sequence of Cystic fibrosis transmembrane conductance regulator (Homo sapiens) (P13569 whole entry, looked up): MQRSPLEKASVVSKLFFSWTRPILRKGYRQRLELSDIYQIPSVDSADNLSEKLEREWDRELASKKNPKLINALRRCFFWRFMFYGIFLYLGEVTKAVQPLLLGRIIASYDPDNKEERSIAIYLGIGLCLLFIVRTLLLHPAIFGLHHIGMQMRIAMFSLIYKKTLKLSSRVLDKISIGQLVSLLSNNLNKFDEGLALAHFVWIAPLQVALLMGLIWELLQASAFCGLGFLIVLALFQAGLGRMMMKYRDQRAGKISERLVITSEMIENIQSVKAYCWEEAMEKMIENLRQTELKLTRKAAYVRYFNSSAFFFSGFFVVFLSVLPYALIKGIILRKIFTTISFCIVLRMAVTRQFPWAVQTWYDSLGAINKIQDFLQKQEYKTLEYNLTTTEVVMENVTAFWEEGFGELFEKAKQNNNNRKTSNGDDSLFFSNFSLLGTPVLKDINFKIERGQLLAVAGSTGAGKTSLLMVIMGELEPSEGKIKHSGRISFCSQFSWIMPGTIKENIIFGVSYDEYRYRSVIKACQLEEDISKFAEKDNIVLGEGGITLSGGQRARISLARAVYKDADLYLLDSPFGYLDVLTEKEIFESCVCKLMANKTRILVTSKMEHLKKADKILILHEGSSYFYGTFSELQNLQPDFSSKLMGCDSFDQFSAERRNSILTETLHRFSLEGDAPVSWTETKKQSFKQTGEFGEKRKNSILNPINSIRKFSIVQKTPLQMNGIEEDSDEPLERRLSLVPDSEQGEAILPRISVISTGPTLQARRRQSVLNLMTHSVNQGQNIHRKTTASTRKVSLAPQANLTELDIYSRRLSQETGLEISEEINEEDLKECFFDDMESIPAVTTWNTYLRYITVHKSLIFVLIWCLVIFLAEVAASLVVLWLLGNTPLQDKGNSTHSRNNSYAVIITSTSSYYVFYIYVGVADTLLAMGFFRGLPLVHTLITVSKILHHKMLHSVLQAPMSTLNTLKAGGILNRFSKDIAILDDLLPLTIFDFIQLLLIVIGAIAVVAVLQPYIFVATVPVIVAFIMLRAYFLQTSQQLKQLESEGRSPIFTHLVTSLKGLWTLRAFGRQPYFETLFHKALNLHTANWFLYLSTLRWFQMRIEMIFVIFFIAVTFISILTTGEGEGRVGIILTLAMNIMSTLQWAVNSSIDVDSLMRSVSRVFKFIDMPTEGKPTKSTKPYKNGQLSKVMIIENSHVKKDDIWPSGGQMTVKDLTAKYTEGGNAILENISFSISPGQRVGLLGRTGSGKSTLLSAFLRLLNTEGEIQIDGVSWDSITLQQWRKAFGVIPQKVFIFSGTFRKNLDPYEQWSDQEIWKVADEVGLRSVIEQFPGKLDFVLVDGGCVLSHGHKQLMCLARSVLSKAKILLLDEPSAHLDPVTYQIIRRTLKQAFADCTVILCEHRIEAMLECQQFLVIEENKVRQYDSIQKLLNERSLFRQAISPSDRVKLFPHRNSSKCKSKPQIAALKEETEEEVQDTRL

Row | SMILES | Activity
1 | COc1ccc(Cl)cc1Nc1nc2c(s1)CCCc1nc(NC(=O)C(C)(C)C)sc1-2 | Active
2 | COc1ccc(Cl)cc1Nc1nc(-c2cccc(NC(=O)C(C)(C)C)c2)cs1 | inactive
3 | COc1ccc(Cl)cc1Nc1nc(-c2cnc(NC(=O)C(C)(C)C)s2)cs1 | Active
4 | COc1ccc(Cl)cc1Nc1nc(-c2sc(NC(=O)C(C)(C)C)nc2C)cs1 | Active
5 | COc1ccc(Cl)cc1Nc1nc(C)c(-c2csc(NC(=O)C(C)(C)C)n2)s1 | inactive
6 | COc1ccc(Cl)cc1Nc1nc(-c2cccc(NC(=O)C(C)(C)C)c2)c(C)s1 | inactive

Reference: ChEMBL document CHEMBL1140116, “Potent s-cis-locked bithiazole correctors of DeltaF508 cystic fibrosis transmembrane conductance regulator cellular processing for cystic fibrosis therapy” (J Med Chem, 2008)
